Measured values taken from US9359281B2, “Enantiomers of 2-hydroxy derivatives of fatty acids” (UNIVERSITAT DE LES ILLES BALEARS, priority 2011, dated 2016).

Columns and labels:
MDA-MB-231 cells [1] = assay: Cell growth inhibition, MDA-MB-231; format: cell-based, human; design: key to Effect (anti-proliferation effect): +: inhibition of cell growth; −: absence of effect; conditions: for IC50: MDA-MB-231, sodium salt form
Excerpt: (§1) At this respect, concentrations which inhibit growth of tumour cells (IC50) are lower for the enantiomer S ([−]) in all studied tumour lines (Table 5). […] In all of the cases, the molecules employed were in the form of sodium salt.

Jurkat cells = assay: Levels of SM in cell membranes, Jurkat; format: cell-based, human
Method: (§2) At the same time, we have studied the anti-tumoral effect on these and other tumoral lines (see Table 2). The cells were treated in vehicle (water with 5% ethanol, control) or with compound 2OHOA for 24 hours in a concentration of 200 μM. The values of the ordinate axis represent the average±ESM (error standard mean for a number of experiments n=3-5) of SM levels (percent of total phospholipids), determined by chromatographic processes (followed by spectroscopy and image analysis), as a percentage of the total number of lipids compared with untreated cells (control). […] In addition to the techniques for measuring enzyme activity and levels of SM described above, other techniques have been tested which lead to very similar results as, gas chromatography, confocal microscopy, fluorescence spectroscopy, etc.
(§3) The levels of SM, cultivated in the absence (control) or presence of 200 μM of [−]2OHOA, in normal cell membranes (MRC-5 and IMR90) were measured, and also in several types of tumoral cells (see Table 2). In all cases, we detected that the membranes of tumoral cells have SM levels of about half or a third of that in normal cells (FIG. 1). […] For example, the spectrophotometry determination of solution fluorescence of the SM levels is a very simple, quick and efficient analysis method (FIG. 1D). […]

[2] = Toxicity and side effects (symptoms) in treated tumour-bearing mice; format: in vivo; conditions: for Toxicity: symptoms registered / Toxicity: Behaviour symptoms, percentage of animals / Toxicity: Diarrhoea, percentage of animals: 15 days
Excerpt: This example recounts the study carried out on immuno-depressed mice infected with human glioma (SF767) cells and treated for 15 days (orally) with the indicated dose (Table 3).

A375 cells = assay: Cell growth inhibition, A375; format: cell-based, human; conditions: A375, sodium salt form
Excerpt: as §1

1321N1 cells [3] = assay: Cell growth inhibition, 1321N1; format: cell-based, human; design: key: +: inhibition of cell growth; −: absence of effect
MDA-MB-231 cells [4] = assay: Levels of SM in cell membranes, MDA-MB-231; format: cell-based, human; conditions: MDA-MB-231, 200 μM [−]2OHOA
Method: (§4) The levels of SM, cultivated in the absence (control) or presence of 200 μM of [−]2OHOA, in normal cell membranes (MRC-5 and IMR90) were measured, and also in several types of tumoral cells (see Table 2). In all cases, we detected that the membranes of tumoral cells have SM levels of about half or a third of that in normal cells (FIG. 1). We can therefore assert that SM concentration is a biomarker which indicates tumorgenesis in human cells. On the other hand, treatments with the molecules of the present invention induce an increase of SM in the tumour cells which is not naturally occurring. […] For example, the spectrophotometry determination of solution fluorescence of the SM levels is a very simple, quick and efficient analysis method (FIG. 1D). Thus, this invention has generated a method for diagnosis for detecting the described pathological processes and pathologies in which there are SM level changes, and also for monitoring the efficiency of the therapy using molecules of the present invention and others of similar activity. Based on this knowledge, this invention also includes kits for diagnosing these diseases.

HT29 cells = assay: Cell growth inhibition, HT29; format: cell-based, human; design: key to Effect (anti-proliferation effect): +: inhibition of cell growth; −: absence of effect; conditions: for IC50: HT29, sodium salt form
Excerpt: as §1

HeLa cells [5] = assay: Levels of SM in cell membranes, HeLa; format: cell-based, human; conditions: 200 μM [−]2OHOA
Method: as §4

U118 cells [6] = assay: Cell growth inhibition, U118; format: cell-based, human; design: key to Effect (anti-proliferation effect): +: inhibition of cell growth; −: absence of effect; conditions: for IC50: U118, sodium salt form
Excerpt: as §1

MRC-5 cells = assay: Levels of SM in cell membranes, MRC-5; format: cell-based, human
Method: as §2, §3

1321N1 cells [7] = assay: Levels of SM in cell membranes, 1321N1; format: cell-based, human
Method: as §2, §3

HeLa cells [8] = assay: Cell growth inhibition, HeLa; format: cell-based, human; design: key to Effect (anti-proliferation effect): +: inhibition of cell growth; −: absence of effect; conditions: for IC50: sodium salt form
Excerpt: as §1

U118 cells [9] = assay: Levels of SM in cell membranes, U118; format: cell-based, human; design: SM levels in the cell membrane (activation of enzyme EC 2.7.8.27): dose or concentration left out as unconfirmed; conditions: for SM levels in the cell membrane (activation of enzyme EC 2.7.8.27): U118, 24 hours
A549 cells = assay: Levels of SM in cell membranes, A549; format: cell-based, human
Method: as §2, §3

SF767 cells = assay: Levels of SM in cell membranes, SF767; format: cell-based, human
Method: as §2, §3

[10] = test system: hypertense rats (strain SHR); assay: Systolic arterial pressure in SHR rats; format: in vivo; conditions: 600 mg/kg every 12 h, 15 days, orally
Method: B. Effects on arterial pressure: hypertense rats (strain SHR) were treated with 2OHOA racemic (+/−) and its optic isomers [−]2OHOA and [+]2OHOA (600 mg/kg every 12 h, 15 days, orally). […] Values of average±EEM systolic pressure (n=6) are shown.
What is more, we studied the effect of the isomers above on arterial pressure, body weight, and the level of cholesterol, triglycerides and glycemia (glucose in plasma) in SHR rats SHR (FIGS. 8B, 8C and 8D and 8E). […] Similarly, during 1 and 5 days of treatment, rats treated with the racemic loosed 11 gram of weight (approximately a 3% of their body weight), whereas animals of the group treated with enantiomer [−]2OHOA loosed 21 grams and animals of the group treated with enantiomer [+]2OHOA only loosed 7 grams of weight. On the other hand, a higher effect of enantiomer [+]2OHOA in the reduction of triglyceride (TG) and total cholesterol (CHOt) levels was observed (FIG. 8D) At this respect, plasmatic basal levels of TG in SHR rats are of 108 mg/dl and were reduced to 56 mg/dl after 2 weeks treatment […]. On the other hand, treatment with enantiomer [+]2OHOA inducted a reduction of plasmatic TG levels to 47 mg/dl, whereas enantiomer [−]2OHOA only produced a modest reduction to 81 mg/dl. […]

Structure (SMILES) | IC50 (MDA-MB-231 cells [1]) | Toxicity: symptoms registered ([2]; 50 mg/kg orally) | Toxicity: symptoms registered ([2]; 75 mg/kg orally) | Toxicity: symptoms registered ([2]; 100 mg/kg orally) | Toxicity: symptoms registered ([2]; 150 mg/kg orally) | Toxicity: Behaviour symptoms, percentage of animals ([2]; 400 mg/kg orally) | Toxicity: Diarrhoea, percentage of animals ([2]; 400 mg/kg orally) | Toxicity: Behaviour symptoms, percentage of animals ([2]; 600 mg/kg orally) | Toxicity: Diarrhoea, percentage of animals ([2]; 600 mg/kg orally) | IC50 (A375 cells) | IC50 (HT29 cells) | IC50 (U118 cells [6]) | IC50 (HeLa cells [8]) | SM levels in the cell membrane (activation of enzyme EC 2.7.8.27) (U118 cells [9]) | Toxicity: Behaviour symptoms, percentage of animals ([2]; 200 mg/kg orally) | Toxicity: Diarrhoea, percentage of animals ([2]; 200 mg/kg orally) | effect on systolic arterial pressure [10] | further results
CCCCCCCC/C=C\CCCCCCC(O)C(=O)O (stereo not drawn) [[−]2OHOA] [[−] HOOC—HOCH—(CH2)6—(CH═CH—CH2)1—(CH2)6—CH3] | 145 µM | no side effects and No | No | No | No | Behaviour 16% | Diarrhoea 16% | Behaviour 50% | Diarrhoea 32% | 163 µM | 159 µM | 97.8 µM | 74.5 µM | even greater increases in SM levels | – | – | – | Effect (anti-proliferation effect) (MDA-MB-231 cells [1]; MDA-MB-231): +; % SM after treatment (Jurkat cells; 200 μM [−]2OHOA): 27%; Toxicity: symptoms registered ([2]; 200 mg/kg orally): No; Effect (anti-proliferation effect) (1321N1 cells [3]): +; % SM after treatment (MDA-MB-231 cells [4]): 31%; Effect (anti-proliferation effect) (HT29 cells; HT29): +; % SM after treatment (HeLa cells [5]): 21%; Effect (anti-proliferation effect) (U118 cells [6]; U118): +; % SM after treatment (MRC-5 cells; MRC-5 non-tumoral fibroblast, 200 μM [−]2OHOA): 24%; % SM after treatment (1321N1 cells [7]; 1321N1, 200 μM [−]2OHOA): 27%; Effect (anti-proliferation effect) (HeLa cells [8]): +; % SM after treatment (U118 cells [9]; U118, 200 μM [−]2OHOA): 28%; % SM after treatment (A549 cells; A549, 200 μM [−]2OHOA): 33%; % SM after treatment (SF767 cells; SF767, 200 μM [−]2OHOA): 24%
CCCCCCCC/C=C\CCCCCCC(O)C(=O)O (racemic) [2OHOA, 2-hydroxyoleic acid] | – | No | No | No | No | Behaviour 16% | Diarrhoea 32% | Behaviour 50% | Diarrhoea 50% | – | – | – | – | significant increases in SM levels | Behaviour 16% | Diarrhoea 16% | considerable therapeutic effect but of lower amplitude | IC50 (MDA-MB-231 cells [1]; Homo sapiens): 244 µM; synthesis of SM (Jurkat cells; 200 μM, 24 hours): significant increase; side effects ([2]; 600 mg/kg, 15 days orally): important side effects; IC50 (A375 cells; Homo sapiens, A-375): 273 µM; IC50 (HT29 cells; Homo sapiens, HT-29): 225 µM; IC50 (U118 cells [6]; Homo sapiens): 142 µM; synthesis of SM (MRC-5 cells; MRC5, 200 μM, 24 hours): not in non-tumoral cells; synthesis of SM (1321N1 cells [7]; 1321N1, 200 μM, 24 hours): significant increase; IC50 (HeLa cells [8]; Homo sapiens): 127 µM; synthesis of SM (U118 cells [9]; U118, 200 μM, 24 hours): significant increase; synthesis of SM (A549 cells; A549, 200 μM, 24 hours): significant increase; synthesis of SM (SF767 cells; SF767, 200 μM, 24 hours): significant increase
CCCCCCCC/C=C\CCCCCCC(O)C(=O)O (stereo not drawn) [[+]2OHOA] [[+]HOOC—HOCH—(CH2)6—(CH═CH—CH2)1—(CH2)6—CH3] | 328 µM | No | No | No | No | Behaviour 32% | Diarrhoea 16% | Behaviour 50% | Diarrhoea 66% | 407 µM | 342 µM | 212 µM | 206 µM | decrease in the level of SM in membranes | Behaviour 16% | Diarrhoea 16% | considerable therapeutic effect but of lower amplitude | –
